From PubChem BioAssay AID1902 (Broad Institute, 2009)
Activity calls are given as the source filed them.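 The calls were made as follows: active = EC50 no more than a set limit of log units above the highest dose; inactive = the rest.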

Target: S. pyogenes SKKanGAS, kanamycin survival, BacTiterGlo, 6 h
Assay: SKKanGAS survival reduction under kanamycin, dose response, streptokinase promoter inhibitor project, SKKanGAS strain, luminescence, dose confirmation (AID 1902);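 also: lower survival reflects blocked streptokinase promoter driving kanamycin resistance gene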

CC(C)Cn1c(=O)c(C(=O)Nc2ccccc2S(N)(=O)=O)c(O)c2ccccc21
EC50: 8.58 µM

O=[N+]([O-])c1cccnc1N1CCC(c2cc(-c3ccc(Cl)cc3)n[nH]2)CC1
EC50: 2.96 µM

Clc1ccccc1Sc1ccc(-c2ccccn2)s1
EC50: 5.48 µM

CCCCn1c(=O)c(C(=O)Nc2ccccn2)c(O)c2ccccc21
EC50: 5.09 µM

O=C(Nc1nc(-c2ccccc2)c(-c2ccccc2)o1)c1ccc(F)cc1
EC50: 0.561 µM

O=C1c2ccccc2C(=O)c2c1oc(C(F)(F)F)c2C(=O)c1ccccc1
EC50: 1.82 µM

O=C1C(Nc2ccc(O)cc2)=C/C(=N/S(=O)(=O)c2cccs2)c2ccccc21
EC50: 1.97 µM

COc1ccc(/C=C/C(=O)NC(=S)NNC(=O)Cc2cccs2)cc1
EC50: 1.23 µM

O=C(O)c1ccc(N/N=C/c2ccc(-c3ccc(Br)cc3)o2)cc1
EC50: 2.36 µM

O=[N+]([O-])c1ccc(N=Nc2ccc(O)cc2O)cc1
EC50: 2.94 µM

Cc1cccc(NC(=O)C2SC(=Nc3c(C)cccc3C)C(C(=O)N3CCOCC3)=C2N)c1 (stereo not given)
EC50: 2.44 µM

CC(=O)OCC1=C(C(=O)O)N2C(=O)C(NC(=O)Cn3nc(C(F)F)c(Cl)c3C)C2SC1 (stereo not given)
EC50: < 0.06 µM

Cc1ccc(O)c(/C=N/NC(=O)Cc2ccc(Cl)cc2)c1
EC50: 2.78 µM

COc1cc(NC(=O)CSc2ncnc3sc4c(c23)CCCC4)c(C(=O)O)cc1OC
EC50: 12 µM

O=C(COc1ccc(F)cc1)Nc1nc(-c2ccccn2)cs1
EC50: 5.55 µM

Cc1ccc(Cn2c(Cc3ccccc3)nc3ccccc32)cc1
EC50: 14.2 µM

O=C(O)c1cc(-c2ccc(-c3c(-c4ccc5c(c4)OCO5)noc3-c3ccsc3)cc2)nc2ccccc12
EC50: 1.84 µM

O=C1c2ccccc2CCC12N=NCC2c1ccc(Br)cc1 (stereo not given)
EC50: 14.8 µM

COc1cccc(COC(=O)c2sc3nc4n(c(=O)c3c2C)CCC4)c1OC
EC50: 4.76 µM

CCN1/C(=C/c2ccc3cc(C)ccc3[n+]2CC)Sc2ccc3sccc3c21
EC50: 2.34 µM

Cc1ccccc1/C=N/Nc1nc2ccccc2[nH]1
EC50: 5.3 µM

COc1cc([N+](=O)[O-])cc(/C=N/NC(=O)c2cccnc2)c1O
EC50: 2.64 µM

C/C(=N\NC(=O)c1ccc(Cl)cc1)c1ccccn1
EC50: 1.48 µM

Cc1onc(-c2c(Cl)cccc2Cl)c1C(=O)NC1C(=O)N2C1SC(C)(C)C2C(=O)O (stereo not given)
EC50: < 0.06 µM

COc1ccc(-c2coc3c(C)c4oc(=O)c(CCC(=O)O)c(C)c4cc23)cc1
EC50: 2.13 µM

CCSc1cc(N2CCCC2)nc(-c2ccccc2)n1
EC50: > 15 µM (inactive)

CCOc1ccc2[nH]c3c(N4CCc5ccccc5C4)ncnc3c2c1
EC50: 7.94 µM

CCCCCCCCCc1nc2sc3c(c2c(=O)n1NC(=O)c1ccccc1[N+](=O)[O-])CC(C)(C)OC3
EC50: 2.75 µM

Cc1cc(NC(=S)N(Cc2ccc(Cl)cc2)Cc2ccc(C(=O)O)cc2)ccc1Cl
EC50: 6.93 µM

CCn1c(=S)sc2c(=O)[nH]c(SCC(=O)Nc3cc(OC)ccc3OC)nc21
EC50: 6.58 µM

CCC(C)c1ccc(C(C)NC(=S)NC2CCCCC2)cc1 (stereo not given)
EC50: 9.12 µM

CCCn1nnnc1NC(=O)c1ccc2ccccc2c1
EC50: 1.01 µM

CCCC(NC(=S)NCC1CCCO1)C12CC3CC(CC(C3)C1)C2 (stereo not given)
EC50: 5.79 µM

CCCCn1c(O)c(N=NC(=O)c2ccccc2NS(=O)(=O)c2cccs2)c2ccccc21
EC50: 5.06 µM

Cn1cc(C(=O)c2ccc(Cl)cc2Cl)cc1C(=O)N/N=C(\N)COc1cccc(C(F)(F)F)c1
EC50: 3.22 µM

CC(=O)O[C@H]1CC[C@]2(C)[C@H]3CC=C4[C@@H]5[C@@H](C)[C@H](C)CC[C@]5(C(=O)O)CC[C@@]4(C)[C@]3(C)CC[C@H]2C1(C)C
EC50: 2.83 µM

COc1ccc(NP(=O)(Oc2ccc(Cl)cc2)Oc2ccc(Cl)cc2)cc1OC
EC50: 7.25 µM

O=C(NNc1c2ccccc2nc2ccccc12)c1ccc(O)cc1O
EC50: 3.15 µM

C=C(C)[C@@H]1CCC2(C(=O)O)CC[C@]3(C)[C@H](CC[C@@H]4[C@@]5(C)CCC(=O)C(C)(C)[C@@H]5CC[C@]43C)[C@@H]12 (stereo not given in full)
EC50: 1.85 µM

c1ccc2sc(SCSc3nc4ccccc4s3)nc2c1
EC50: 2.86 µM

COc1cc(C(=O)Nc2ccc(-c3nc4cc(C)ccc4o3)c(O)c2)cc(OC)c1OC
EC50: 3.9 µM

COc1cc(/C=C2/SC(=S)N(Cc3ccccc3)C2=O)cc(Cl)c1O
EC50: 2.58 µM

O=C(CSc1nnc(CNC(=O)c2ccccc2)o1)NCc1ccccc1
EC50: > 15 µM (inactive)

Nc1nc(NCCOCCO)nc(N2CCCCCC2)c1[N+](=O)[O-]
EC50: 5.78 µM

Cn1ccc(=Nc2ccc(NC(=O)c3ccc(N=c4ccn(C)c5ccc([N+](=O)[O-])cc45)cc3)cc2)cc1
EC50: 0.357 µM

CCCOc1ccc(-c2nc(OC)c3ccccc3n2)cc1
EC50: > 15 µM (inactive)

CCOc1cccc(/C=N/NC(=S)Nc2ccccc2[N+](=O)[O-])c1O
EC50: 0.095 µM

CC(C)(C)c1nnc(N/N=C/c2cc(Br)ccc2O)n(N)c1=O
EC50: 2.12 µM

O=c1c2ccccc2nc(COc2ccccc2)n1/N=C/c1cc([N+](=O)[O-])ccc1O
EC50: 1.73 µM

O=C1c2[nH]nc(-c3ccccc3O)c2C(c2cccc(Cl)c2)N1Cc1ccco1 (stereo not given)
EC50: 7.4 µM

COC(=O)c1ccc2[nH]c3cccc(/C(=C/c4ccccc4)c4ccccc4)c3c2c1
EC50: 1.12 µM

CCOC(=O)/C(=N/Nc1ccccc1)c1csc(Nc2ccccc2)n1
EC50: 3.22 µM

Cc1nn2c(NCc3ccccn3)cc(C(C)C)nc2c1-c1ccccc1
EC50: 5.94 µM

Cc1ccc(C(=O)N2CCOCC2)cc1S(=O)(=O)N1CCOCC1
EC50: > 15 µM (inactive)

CCCCN(CCCC)c1nc(-c2ccncc2)nc2ccccc12
EC50: 4.24 µM

CCCNC1=C(C)C(=O)C2=C(C1=O)C(COC(N)=O)[C@]1(OC)C3NC3CN21 (stereo not given in full)
EC50: < 0.06 µM

COc1ccc(S(=O)(=O)N2CCN=C2SCc2cccc(C)c2)cc1
EC50: > 15 µM (inactive)

CCCCn1c(O)c(C(CC)=Nc2ccc3c(c2)CCC3)c(=O)[nH]c1=O
EC50: 6.01 µM

CC(/C=C/c1ccc(N(C)C)cc1)=N/N=C1/NC(=O)CC(C(=O)Nc2ccc(Cl)cc2)S1 (stereo not given)
EC50: 2.38 µM

Cc1ccc(CNC(=S)NC2CCC(C(C)(C)C)CC2)cc1 (stereo not given)
EC50: 3.4 µM

O=C(/C=C/c1ccc(Br)cc1)NC(=S)NNC(=O)c1ccco1
EC50: 0.391 µM

Oc1c(Cl)cc(Cl)c2cccnc12
EC50: 0.148 µM

CCN1CCN(Cc2ccc(NC(=O)c3ccc(C)c(NC(=O)C(=O)c4c[nH]c5ccccc45)c3)cc2C(F)(F)F)CC1
EC50: 3.34 µM

COc1ccc(C(=O)Nc2sc(C)c(-c3ccccc3)c2C#N)cc1OC
EC50: 13.3 µM

Cc1ccc(S(=O)(=O)N2CCCCC2)cc1NC(=O)CN1C(=O)CN(C)C1=O
EC50: > 15 µM (inactive)

Cn1c(SCC(=O)Nc2cccc3ccccc23)nc(O)cc1=O
EC50: > 15 µM (inactive)

O=C(CSc1nnc(CNC(=O)c2c(F)cccc2F)o1)NCCc1ccccc1
EC50: > 15 µM (inactive)

Cn1c(CNC(=O)CNC(=O)c2ccc(F)cc2)cc(=O)n(C)c1=O
EC50: > 15 µM (inactive)

CCCC1=NN2C(=N)/C(=C\c3cc(C)n(-c4cc(C)cc(C)c4)c3C)C(=O)N=C2S1
EC50: 1.83 µM

Cc1ccc(-c2cc3nc(-c4ccc(Br)cc4)cc(N)n3n2)cc1
EC50: 0.561 µM

CC(C)CN(Cc1cc(=O)oc2cc(-c3ccccc3)c(O)cc12)CC(C)C
EC50: 3.88 µM

O=C(/C(N=Nc1cccc([N+](=O)[O-])c1)=C(/O)c1ccc(Br)cc1)C(F)(F)F
EC50: 4.28 µM

CCOC(=O)CC(NC(=O)CCS(=O)(=O)c1ccc2c(c1)n(C)c(=O)c(=O)n2C)c1ccc(C)cc1 (stereo not given)
EC50: > 15 µM (inactive)

O=C(Nc1ccccc1C(=O)Nc1nnc(C(F)(F)F)s1)c1ccccc1Cl
EC50: 1.34 µM

COc1ccc(CN2C(=O)c3ccccc3C(/C=N/OCc3ccc(Cl)cc3)C2=O)cc1 (stereo not given)
EC50: 1.11 µM

CC1CCN(c2nc(-c3ccc(F)cc3)cc(C(F)(F)F)n2)CC1
EC50: 1.71 µM

CCn1cc(C(=O)O)c(=O)c2cc(F)c(N3CCN(C(=S)Nc4ccc(OC)cc4)CC3)cc21
EC50: 3.18 µM

Cc1ccc(C(=O)Nc2nnc(C3=COCCO3)o2)cc1C
EC50: 2.96 µM

CCCOc1ccc(C(=O)NC(=S)NNC(=O)c2c(-c3ccccc3)noc2C)cc1
EC50: 0.274 µM

COc1ccc2c(c1)[nH]c1c(=O)n(CCc3cnc[nH]3)cnc12
EC50: > 15 µM (inactive)

O=C(Nc1cccc(F)c1)N1CCCCCC1
EC50: > 15 µM (inactive)

O=C(Nc1cccc(C(F)(F)F)c1)c1cc2c(=O)c3ccccc3oc2nc1C(F)(F)F
EC50: 7.27 µM

CC/C(=N\NC(=S)Nc1cc(C)ccc1C)c1ccc(OC(F)F)cc1
EC50: 3.13 µM

Cc1c(N/N=C(\C#N)C(=O)c2ccc(Cl)cc2)c(=O)n(-c2ccccc2)n1C
EC50: 0.36 µM

COc1ccc(C2CC(c3ccccc3)=NN2C(=O)c2cccs2)cc1 (stereo not given)
EC50: 7.84 µM

CCOC(=O)c1sc2ncnc(N3CCN(c4ccc(OC)cc4)CC3)c2c1C
EC50: 10.3 µM

COc1ccc(/C=N/Nc2cc(C)nc(-n3nc(C)cc3C)n2)c(OC)c1
EC50: 7.93 µM

O=C(COc1ccccc1)NC1C(=O)N2C(C(=O)O)=C(Cl)CSC12 (stereo not given)
EC50: 0.128 µM

Cc1ccc(C(C)C)c(OCc2ccc(C(=O)N/N=C/c3ccc(O)cc3O)cc2)c1
EC50: 1.26 µM

C=C(C)COc1ccc(-c2[nH]ncc2Oc2cccc(OC)c2)c(O)c1
EC50: 5.93 µM

Cc1cc(C(F)(F)F)c(C#N)c(SCC(=O)Nc2nc3cc(Br)ccc3s2)n1
EC50: 5.7 µM

COc1ccc(-c2oc3ccc(N4CCOCC4)cc3c2C#CC2(O)CCCCC2)cc1
EC50: 2.11 µM

CSc1cccc(-c2nnc(NC(=O)c3cccc(N4C(=O)CCC4=O)c3)o2)c1
EC50: 2.04 µM

CCOC(=O)c1cccnc1SCC(=O)NC(C)CC (stereo not given)
EC50: > 15 µM (inactive)

O=C(NNC(=S)NC(=O)c1cccc([N+](=O)[O-])c1)c1ccc(Br)cc1
EC50: 2.07 µM

Cc1cc(Cl)c2oc(C(=O)N3CCC(O)(c4ccccc4)CC3)c(C)c2c1
EC50: 7.31 µM

Fc1cccc2sc(Nc3nnc(-c4ccco4)o3)nc12
EC50: 0.307 µM

Cc1ccccc1N1CCN(C(=O)CCN2C(=O)c3ccccc3C2=O)CC1
EC50: > 15 µM (inactive)

O=[N+]([O-])c1ccc(S(=O)(=O)Nc2ccc(-c3csc(-c4ccccc4)n3)cc2)cc1
EC50: 2.79 µM

c1ccc(-c2noc(-c3ccccc3-c3ccccc3)n2)cc1
EC50: 3.7 µM

O=C(O)CSc1nnc(Cn2c(=O)sc3ccccc32)n1-c1cccc(Cl)c1
EC50: > 15 µM (inactive)

O=C(Cc1ccc(Br)cc1)Nc1nc2ccccc2[nH]1
EC50: 4.55 µM

COc1ccccc1-c1nnc(Nc2nc3c(OC)cccc3s2)o1
EC50: 0.803 µM

O=C(Cc1cccs1)N/N=C/c1ccco1
EC50: 2.9 µM

COc1ccc(-c2cc(-c3ccc(Cl)cc3)n[nH]2)c(O)c1
EC50: 8.75 µM
